Test results reported in the kinase profiling compilation of Christmann-Franck et al. (2016).

Experiments:
PHKG1 or PHKG2 (rabbit) [1] = conditions: compound 10.0 µM; accession and sequence are those of the human protein
PRKACA or PRKACB (cow) [2] = experiment: radiometric filter-binding kinase assay; conditions: compound 1.0 µM; accession and sequence are those of the human protein
PHKG1 or PHKG2 (rabbit) [3] = experiment: radiometric filter-binding kinase assay; conditions: compound 1.0 µM; ATP 100 µM; accession and sequence are those of the human protein
PRKAA1 or PRKAA2 (rat) [4] = experiment: radiometric filter-binding kinase assay; conditions: compound 1.0 µM; ATP 100 µM; accession and sequence are those of the human protein
MAPK12 (human) = MAPK12 (human) (UniProt P53778); conditions: ATP 100 µM
PRKCA (human) = PRKCA (human) (UniProt P17252); conditions: ATP 100 µM
GSK3B (human) = GSK3B (human) (UniProt P49841); conditions: ATP 100 µM
Chain of GSK3B (human) (P49841 whole entry, looked up): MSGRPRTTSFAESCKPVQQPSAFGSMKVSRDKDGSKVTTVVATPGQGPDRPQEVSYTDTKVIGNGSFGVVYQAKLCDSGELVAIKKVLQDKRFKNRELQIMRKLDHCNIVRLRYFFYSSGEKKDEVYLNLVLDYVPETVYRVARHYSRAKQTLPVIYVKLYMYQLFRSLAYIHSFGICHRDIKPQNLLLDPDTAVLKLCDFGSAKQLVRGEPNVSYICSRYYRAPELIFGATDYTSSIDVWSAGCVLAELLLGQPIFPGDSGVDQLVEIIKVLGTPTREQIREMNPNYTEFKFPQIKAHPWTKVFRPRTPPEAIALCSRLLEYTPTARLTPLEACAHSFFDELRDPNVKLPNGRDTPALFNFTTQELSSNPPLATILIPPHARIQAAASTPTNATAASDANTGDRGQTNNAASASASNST

MAPK8 (human) = MAPK8 (human) (UniProt P45983); conditions: ATP 100 µM
Chain of MAPK8 (human) (P45983 whole entry, looked up): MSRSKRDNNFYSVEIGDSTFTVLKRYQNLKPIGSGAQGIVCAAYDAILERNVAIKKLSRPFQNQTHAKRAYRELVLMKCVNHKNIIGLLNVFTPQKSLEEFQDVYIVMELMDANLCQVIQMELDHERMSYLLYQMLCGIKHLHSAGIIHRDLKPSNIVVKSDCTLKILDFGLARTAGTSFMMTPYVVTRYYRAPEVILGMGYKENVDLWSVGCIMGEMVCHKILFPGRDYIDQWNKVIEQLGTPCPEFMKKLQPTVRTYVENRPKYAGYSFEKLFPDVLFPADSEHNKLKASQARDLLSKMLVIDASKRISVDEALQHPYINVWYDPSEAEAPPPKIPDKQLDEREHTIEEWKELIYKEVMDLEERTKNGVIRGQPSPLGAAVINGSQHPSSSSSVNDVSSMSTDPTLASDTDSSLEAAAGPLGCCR

AKT1 (human) = AKT1 (human) (UniProt P31749); conditions: compound 1.0 µM; ATP 100 µM
Chain of AKT1 (human) (P31749 whole entry, looked up): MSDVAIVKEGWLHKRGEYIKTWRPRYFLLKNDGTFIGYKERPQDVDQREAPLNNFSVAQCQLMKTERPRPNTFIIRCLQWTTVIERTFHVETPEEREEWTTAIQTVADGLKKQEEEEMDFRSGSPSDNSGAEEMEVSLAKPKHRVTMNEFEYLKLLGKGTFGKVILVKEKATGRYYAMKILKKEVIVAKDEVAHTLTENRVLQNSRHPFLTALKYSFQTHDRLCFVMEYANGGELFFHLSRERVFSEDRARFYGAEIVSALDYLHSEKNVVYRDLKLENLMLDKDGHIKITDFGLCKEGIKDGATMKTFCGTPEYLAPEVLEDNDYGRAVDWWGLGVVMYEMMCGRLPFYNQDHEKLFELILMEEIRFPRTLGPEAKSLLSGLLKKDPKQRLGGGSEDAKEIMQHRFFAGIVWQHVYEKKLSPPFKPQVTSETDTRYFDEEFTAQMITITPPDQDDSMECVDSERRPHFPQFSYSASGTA

MAPKAPK2 (human) = MAPKAPK2 (human) (UniProt P49137); conditions: ATP 100 µM
MAP2K1 (rabbit) = conditions: compound 1.0 µM; accession and sequence are those of the human protein
[5] = test system: RPS6KB1 (human), P23443 [T412E]; conditions: ATP 100 µM
Chain of RPS6KB1 (human), P23443 [T412E] (P23443 whole entry T412E, looked up): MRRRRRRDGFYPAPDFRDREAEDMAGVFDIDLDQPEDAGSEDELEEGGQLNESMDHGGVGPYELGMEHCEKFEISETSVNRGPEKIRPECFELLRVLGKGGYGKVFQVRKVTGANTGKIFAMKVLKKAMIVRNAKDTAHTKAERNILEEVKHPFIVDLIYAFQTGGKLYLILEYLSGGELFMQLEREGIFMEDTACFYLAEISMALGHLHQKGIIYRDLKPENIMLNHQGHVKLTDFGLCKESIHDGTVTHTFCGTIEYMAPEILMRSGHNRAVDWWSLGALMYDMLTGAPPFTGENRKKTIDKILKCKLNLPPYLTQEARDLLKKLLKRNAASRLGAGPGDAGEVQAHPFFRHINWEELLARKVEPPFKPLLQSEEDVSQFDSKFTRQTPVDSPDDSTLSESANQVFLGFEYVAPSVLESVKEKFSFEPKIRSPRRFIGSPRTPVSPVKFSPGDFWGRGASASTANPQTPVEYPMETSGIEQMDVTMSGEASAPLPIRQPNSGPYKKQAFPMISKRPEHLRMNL

PDPK1 (human) = PDPK1 (human) (UniProt O15530); conditions: ATP 100 µM
Chain of PDPK1 (human) (O15530 whole entry, looked up): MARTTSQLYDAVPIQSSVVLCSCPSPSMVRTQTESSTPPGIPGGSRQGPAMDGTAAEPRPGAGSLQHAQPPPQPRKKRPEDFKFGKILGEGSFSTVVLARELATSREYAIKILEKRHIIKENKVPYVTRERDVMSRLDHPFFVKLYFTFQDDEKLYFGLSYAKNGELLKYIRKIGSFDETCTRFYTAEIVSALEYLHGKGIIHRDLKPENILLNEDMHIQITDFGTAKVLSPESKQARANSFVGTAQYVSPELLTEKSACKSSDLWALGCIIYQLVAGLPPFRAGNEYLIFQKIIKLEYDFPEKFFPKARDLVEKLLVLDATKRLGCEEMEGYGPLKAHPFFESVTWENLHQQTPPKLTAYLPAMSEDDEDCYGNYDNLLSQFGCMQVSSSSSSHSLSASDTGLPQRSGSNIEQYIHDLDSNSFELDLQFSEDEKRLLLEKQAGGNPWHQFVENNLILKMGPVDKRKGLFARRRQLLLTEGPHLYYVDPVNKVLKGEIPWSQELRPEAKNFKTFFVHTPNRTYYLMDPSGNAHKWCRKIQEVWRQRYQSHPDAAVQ

[6] = molecular target: CSNK2A1 or CSNK2A2 (human) (UniProt P19784+P68400); conditions: ATP 100 µM
RPS6KA5 KD1 KD2 (human) = RPS6KA5 KD1 KD2 (human) (UniProt O75582); conditions: ATP 100 µM
Chain of RPS6KA5 KD1 KD2 (human) (O75582 whole entry, looked up): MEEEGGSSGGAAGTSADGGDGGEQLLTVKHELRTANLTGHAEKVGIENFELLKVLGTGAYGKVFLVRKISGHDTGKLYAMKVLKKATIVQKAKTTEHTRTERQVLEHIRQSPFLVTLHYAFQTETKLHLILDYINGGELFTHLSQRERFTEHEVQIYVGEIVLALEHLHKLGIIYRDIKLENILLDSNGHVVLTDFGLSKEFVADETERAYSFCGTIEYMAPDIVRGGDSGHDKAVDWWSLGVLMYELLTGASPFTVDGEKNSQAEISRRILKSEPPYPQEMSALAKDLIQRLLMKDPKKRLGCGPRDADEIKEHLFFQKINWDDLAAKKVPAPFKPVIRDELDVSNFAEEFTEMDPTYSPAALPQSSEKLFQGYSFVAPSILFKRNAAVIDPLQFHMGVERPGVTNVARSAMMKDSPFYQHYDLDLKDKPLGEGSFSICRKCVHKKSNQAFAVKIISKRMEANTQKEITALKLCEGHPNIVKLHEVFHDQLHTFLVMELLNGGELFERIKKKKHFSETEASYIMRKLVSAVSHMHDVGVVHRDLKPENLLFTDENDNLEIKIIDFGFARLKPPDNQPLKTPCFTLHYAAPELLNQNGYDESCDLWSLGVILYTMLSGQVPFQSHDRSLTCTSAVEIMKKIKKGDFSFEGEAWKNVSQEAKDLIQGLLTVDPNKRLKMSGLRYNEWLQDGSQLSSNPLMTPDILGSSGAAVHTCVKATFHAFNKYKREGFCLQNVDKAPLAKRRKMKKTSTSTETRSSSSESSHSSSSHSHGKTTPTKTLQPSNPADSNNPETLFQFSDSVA

LCK (human) = LCK (human) (UniProt P06239); conditions: ATP 100 µM
Chain of LCK (human) (P06239 whole entry, looked up): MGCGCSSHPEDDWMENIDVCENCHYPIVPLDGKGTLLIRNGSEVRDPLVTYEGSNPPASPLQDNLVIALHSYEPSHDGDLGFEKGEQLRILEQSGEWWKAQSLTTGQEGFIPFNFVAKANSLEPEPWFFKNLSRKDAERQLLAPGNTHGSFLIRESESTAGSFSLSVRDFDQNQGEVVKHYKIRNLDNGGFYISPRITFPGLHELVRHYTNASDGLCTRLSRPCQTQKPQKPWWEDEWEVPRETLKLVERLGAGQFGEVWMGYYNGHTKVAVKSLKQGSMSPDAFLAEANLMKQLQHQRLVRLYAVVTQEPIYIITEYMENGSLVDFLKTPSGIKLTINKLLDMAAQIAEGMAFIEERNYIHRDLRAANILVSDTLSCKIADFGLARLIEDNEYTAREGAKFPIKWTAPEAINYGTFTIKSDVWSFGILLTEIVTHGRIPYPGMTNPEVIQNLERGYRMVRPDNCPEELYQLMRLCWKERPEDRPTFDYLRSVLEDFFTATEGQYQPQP

[7] = test system: SGK1 (human), O00141 [S422D]; conditions: ATP 100 µM
Chain of SGK1 (human), O00141 [S422D] (O00141 whole entry S422D, looked up): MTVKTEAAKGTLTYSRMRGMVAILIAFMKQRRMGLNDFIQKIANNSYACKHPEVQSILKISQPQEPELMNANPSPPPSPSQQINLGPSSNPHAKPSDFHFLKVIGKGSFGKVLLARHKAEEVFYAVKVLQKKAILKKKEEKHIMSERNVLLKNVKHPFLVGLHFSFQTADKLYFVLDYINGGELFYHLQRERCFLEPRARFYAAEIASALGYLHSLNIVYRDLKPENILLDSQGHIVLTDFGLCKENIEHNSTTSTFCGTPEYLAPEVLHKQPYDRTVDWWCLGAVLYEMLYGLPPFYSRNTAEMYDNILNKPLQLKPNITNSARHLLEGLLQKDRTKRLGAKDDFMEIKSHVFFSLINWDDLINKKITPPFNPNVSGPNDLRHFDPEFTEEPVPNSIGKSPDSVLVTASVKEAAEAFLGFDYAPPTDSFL

CHEK1 (human) = CHEK1 (human) (UniProt O14757); conditions: ATP 100 µM
ROCK2 (rat) = conditions: accession and sequence are those of the human protein
MAPK13 (human) = MAPK13 (human) (UniProt O15264); conditions: ATP 100 µM
MAP2K4 (human) = MAP2K4 (human) (UniProt P45985); conditions: compound 10.0 µM; ATP 100 µM
MAP2K3 (human) = MAP2K3 (human) (UniProt P46734); conditions: compound 10.0 µM; ATP 100 µM
MAPK11 (human) = MAPK11 (human) (UniProt Q15759); conditions: ATP 100 µM
MAPK1 (mouse) = conditions: compound 10.0 µM; accession and sequence are those of the human protein
MAP2K7 (human) = MAP2K7 (human) (UniProt O14733); conditions: compound 10.0 µM; ATP 100 µM
PRKACA or PRKACB (cow) [8] = conditions: compound 10.0 µM; accession and sequence are those of the human protein
PRKAA1 or PRKAA2 (rat) [9] = conditions: compound 10.0 µM; accession and sequence are those of the human protein
MAP2K6 (human) = MAP2K6 (human) (UniProt P52564); conditions: compound 10.0 µM; ATP 100 µM
RPS6KA3 KD1 KD2 (rabbit) [10] = conditions: compound 10.0 µM; accession and sequence are those of the human protein
MYLK (chicken) [11] = experiment: radiometric filter-binding kinase assay; conditions: compound 1.0 µM; accession and sequence are those of the human protein
RPS6KA3 KD1 KD2 (rabbit) [12] = experiment: radiometric filter-binding kinase assay; conditions: compound 1.0 µM; ATP 100 µM; accession and sequence are those of the human protein
MYLK2 (rabbit) = experiment: radiometric filter-binding kinase assay; conditions: compound 1.0 µM; ATP 100 µM; accession and sequence are those of the human protein
PIK3CG (cow) = conditions: compound 1.0 µM; accession and sequence are those of the human protein
MAPKAPK5 (human) = MAPKAPK5 (human) (UniProt Q8IW41); conditions: compound 1.0 µM; ATP 100 µM
MAPK14 (human) = MAPK14 (human) (UniProt Q16539); conditions: compound 1.0 µM; ATP 100 µM
MYLK (chicken) [13] = conditions: accession and sequence are those of the human protein
[14] = molecular target: CAMK2A or CAMK2B or CAMK2D or CAMK2G (human) (UniProt Q13555+Q13557+Q9UQM7+Q13554); conditions: compound 1.0 µM; ATP 100 µM

## CCCCCCOC(=O)[C@@]1(O)C[C@H]2O[C@]1(C)n1c3ccccc3c3c4c(c5c6ccccc6n2c5c31)C(=O)NC4
PHKG1 or PHKG2 (rabbit) [1]
  residual activity: 0%

## CO[C@H]1CC2CC[C@@H](C)[C@@](O)(O2)C(=O)C(=O)N2CCCC[C@H]2C(=O)OC([C@H](C)C[C@@H]2CC[C@@H](O)[C@H](OC)C2)CC(=O)[C@H](C)/C=C(\C)[C@@H](O)[C@@H](OC)C(=O)[C@H](C)C[C@H](C)/C=C/C=C/C=C/1C (some centres not stated)
PRKACA or PRKACB (cow) [2]
  residual activity: 104%
PHKG1 or PHKG2 (rabbit) [3]
  residual activity: 103%
PRKAA1 or PRKAA2 (rat) [4]
  residual activity: 106%
MAPK12 (human); compound 1.0 µM
  residual activity: 100%
PRKCA (human); compound 1.0 µM
  residual activity: 99%
GSK3B (human); compound 1.0 µM
  residual activity: 89%
MAPK8 (human); compound 1.0 µM
  residual activity: 98%
AKT1 (human)
  residual activity: 91%
MAPKAPK2 (human); compound 1.0 µM
  residual activity: 125%
MAP2K1 (rabbit)
  residual activity: 99%
[5]; compound 1.0 µM
  residual activity: 109%
PDPK1 (human); compound 1.0 µM
  residual activity: 110%
[6]; compound 1.0 µM
  residual activity: 104%
RPS6KA5 KD1 KD2 (human); compound 1.0 µM
  residual activity: 104%
LCK (human); compound 1.0 µM
  residual activity: 102%
[7]; compound 1.0 µM
  residual activity: 108%
CHEK1 (human); compound 1.0 µM
  residual activity: 102%
ROCK2 (rat); compound 1.0 µM
  residual activity: 92%

## N#CC(=C(\N)Sc1ccccc1N)/C(C#N)=C(/N)Sc1ccccc1N
MAPK12 (human); compound 10.0 µM
  residual activity: 100%
PRKCA (human); compound 10.0 µM
  residual activity: 92%
GSK3B (human); compound 10.0 µM
  residual activity: 105%
MAPK13 (human); compound 10.0 µM
  residual activity: 111%
MAPK8 (human); compound 10.0 µM
  residual activity: 96%
MAPKAPK2 (human); compound 10.0 µM
  residual activity: 102%
[5]; compound 10.0 µM
  residual activity: 92%
MAP2K4 (human)
  residual activity: 81%
MAP2K3 (human)
  residual activity: 114%
PDPK1 (human); compound 10.0 µM
  residual activity: 99%
[6]; compound 10.0 µM
  residual activity: 107%
MAPK11 (human); compound 10.0 µM
  residual activity: 90%
RPS6KA5 KD1 KD2 (human); compound 10.0 µM
  residual activity: 104%
MAPK1 (mouse)
  residual activity: 92%
MAP2K7 (human)
  residual activity: 89%
LCK (human); compound 10.0 µM
  residual activity: 87%
PRKACA or PRKACB (cow) [8]
  residual activity: 95%
PHKG1 or PHKG2 (rabbit) [1]
  residual activity: 101%
[7]; compound 10.0 µM
  residual activity: 91%
PRKAA1 or PRKAA2 (rat) [9]
  residual activity: 85%
MAP2K6 (human)
  residual activity: 79%
CHEK1 (human); compound 10.0 µM
  residual activity: 95%
ROCK2 (rat); compound 10.0 µM
  residual activity: 94%
RPS6KA3 KD1 KD2 (rabbit) [10]
  residual activity: 88%

## O=C1NCc2c1c1c3ccccc3[nH]c1c1[nH]c3ccccc3c21
PHKG1 or PHKG2 (rabbit) [1]
  residual activity: 0%

## CN1C(=O)C(c2c[nH]c3ccccc23)=C(c2c[nH]c3ccccc23)C1=O
PHKG1 or PHKG2 (rabbit) [3]
  residual activity: 100%

## COC[C@H]1OC(=O)c2coc3c2[C@@]1(C)C1=C(C3=O)[C@@H]2CCC(=O)[C@@]2(C)C[C@H]1OC(C)=O
PRKACA or PRKACB (cow) [2]
  residual activity: 97%
MYLK (chicken) [11]
  residual activity: 4%
PHKG1 or PHKG2 (rabbit) [3]
  residual activity: 100%
PRKAA1 or PRKAA2 (rat) [4]
  residual activity: 106%
RPS6KA3 KD1 KD2 (rabbit) [12]
  residual activity: 92%
MYLK2 (rabbit)
  residual activity: 104%
MAPK12 (human); compound 1.0 µM
  residual activity: 75%
PIK3CG (cow)
  residual activity: 0%
PRKCA (human); compound 1.0 µM
  residual activity: 100%
MAPKAPK5 (human)
  residual activity: 85%
MAPK14 (human)
  residual activity: 86%
MAPK8 (human); compound 1.0 µM
  residual activity: 97%
AKT1 (human)
  residual activity: 96%
MAPKAPK2 (human); compound 1.0 µM
  residual activity: 102%
MAP2K1 (rabbit)
  residual activity: 96%
[5]; compound 1.0 µM
  residual activity: 106%
PDPK1 (human); compound 1.0 µM
  residual activity: 88%
[6]; compound 1.0 µM
  residual activity: 98%
MAPK11 (human); compound 1.0 µM
  residual activity: 74%
RPS6KA5 KD1 KD2 (human); compound 1.0 µM
  residual activity: 99%
LCK (human); compound 1.0 µM
  residual activity: 95%
MYLK (chicken) [13]
  IC50: 260 nM
[7]; compound 1.0 µM
  residual activity: 101%
CHEK1 (human); compound 1.0 µM
  residual activity: 99%
ROCK2 (rat); compound 1.0 µM
  residual activity: 91%

## CN[C@@H]1C[C@@H]2O[C@@](C)([C@@H]1OC)n1c3ccccc3c3c4c(c5c6ccccc6n2c5c31)C(=O)N[C@@H]4O
PRKACA or PRKACB (cow) [2]
  residual activity: 39%
PHKG1 or PHKG2 (rabbit) [3]
  residual activity: 0%
PRKAA1 or PRKAA2 (rat) [4]
  residual activity: 1%
RPS6KA3 KD1 KD2 (rabbit) [12]
  residual activity: 5%
MAPK12 (human); compound 1.0 µM
  residual activity: 76%
PRKCA (human); compound 1.0 µM
  residual activity: 1%
GSK3B (human); compound 1.0 µM
  residual activity: 83%
MAPKAPK5 (human)
  residual activity: 77%
MAPK13 (human); compound 1.0 µM
  residual activity: 91%
MAPK14 (human)
  residual activity: 92%
MAPK8 (human); compound 1.0 µM
  residual activity: 98%
AKT1 (human)
  residual activity: 31%
MAPKAPK2 (human); compound 1.0 µM
  residual activity: 90%
MAP2K1 (rabbit)
  residual activity: 90%
[5]; compound 1.0 µM
  residual activity: 28%
PDPK1 (human); compound 1.0 µM
  residual activity: 0%
[6]; compound 1.0 µM
  residual activity: 77%
RPS6KA5 KD1 KD2 (human); compound 1.0 µM
  residual activity: 19%
LCK (human); compound 1.0 µM
  residual activity: 7%
[14]
  residual activity: 69%
CHEK1 (human); compound 1.0 µM
  residual activity: 3%
ROCK2 (rat); compound 1.0 µM
  residual activity: 22%
